Data reported in patent US9745325B2, “Fused heterocyclic compound” (Takeda Pharmaceutical Company Limited, priority 2014, dated 2017).

Key:
[1] = target: T1, CDK8/CycC (Homo sapiens, UniProt P49336); test: CDK8 inhibitory activity (Kinase Tracer-236 / Eu-anti-GST fluorescence assay); assay type: binding; set-up: Percent inhibition of CDK8 activity (%): concentration or dose not given beside the values; details: test compound concentration given as '1 1.1.1\4' [sic]
T1 construct: purchased Carna Biosciences
Description: (§1) The compound of the present invention was evaluated for its CDK8 inhibitory activity and CDK19 inhibitory activity by the following method. […] The primary diluted solution was dispensed in the amount of 2 μL/well to a 384-well plate, and then, a mixed solution of Eu^3+ Cryptate conjugated mouse monoclonal antibody anti-glutathione S-transferase (Cisbio) diluted 267-fold with an assay buffer and 60 nM Kinase Tracer-236 (Life technologies) was added thereto at 2 μL/well. […] After the addition, the plate was left standing at room temperature for 1 hour, and then, the fluorescence intensity (excitation wavelength 320 nm, fluorescence wavelength 615 nm, 665 nm, delay time 50 μsec) was measured using ann EnVision plate reader (PerkinElmer). The percent inhibition of CDK8 or CDK19 activity by the test compound can be calculated according to the following formula, wherein the fluorescence intensity of a reaction solution in the absence of compound is defined as the control, and the fluorescence intensity of a reaction solution in the presence of 10 μM of control compound is defined as the blank.

[2] = target: T2, CDC2L6/CycC (CDK19) (Homo sapiens, UniProt Q9BWU1); test: CDK19 inhibitory activity (Kinase Tracer-236 / Eu-anti-GST fluorescence assay); assay type: binding; set-up: Percent inhibition of CDK19 activity (%): concentration or dose not given beside the values; details: test compound concentration given as '1 1.1.1\4' [sic]
T2 construct: purchased Carna Biosciences Inc
Description: as §1

[3] = test system: human multiple myeloma RPMI8226 cells; test: Inhibitory activity against human multiple myeloma RPMI8226 cell growth (CellTiter-Glo); assay type: cell-based; details: Homo sapiens, RPMI-8226, 192 h, 1 μM test compound, cultured for 8 days; read-out: Percent inhibition of RPMI8226 cell growth (%)
Description: The compound of the present invention was evaluated for its inhibitory activity against human multiple myeloma RPMI8226 cell growth by the following method.
A suspension of human multiple myeloma RPMI8226 cells (purchased from the Health Protection Agency) was inoculated at 40 μL (300 cells/well) to a 384-well plate and cultured at 37° C. for 1 day in a 5% CO2 incubator. After the culture, each test compound solution was added thereto at a test concentration of 1 μM using TECAN D300, and the cells were further cultured for 8 days. After the culture, CellTiter-Glo™ Luminescent Cell Viability Assay reagent (Promega) was added at 40 μL/well to a 384-well plate, and the amount of luminescence was measured using a luminometer. Inhibitory activity against human multiple myeloma RPMI8226 cell growth (percent inhibition (%)) of the test compound was calculated according to the following formula, which is based on the hypothesis that the amount of residual ATP reflects the number of cells. In this formula, 100% control represents the amount of luminescence from a well with only 0.1% DMSO added. Percent inhibition (%)=(1−(amount of luminescence of the test compound)÷(100% control))×100

T1 sequence (P49336 whole entry): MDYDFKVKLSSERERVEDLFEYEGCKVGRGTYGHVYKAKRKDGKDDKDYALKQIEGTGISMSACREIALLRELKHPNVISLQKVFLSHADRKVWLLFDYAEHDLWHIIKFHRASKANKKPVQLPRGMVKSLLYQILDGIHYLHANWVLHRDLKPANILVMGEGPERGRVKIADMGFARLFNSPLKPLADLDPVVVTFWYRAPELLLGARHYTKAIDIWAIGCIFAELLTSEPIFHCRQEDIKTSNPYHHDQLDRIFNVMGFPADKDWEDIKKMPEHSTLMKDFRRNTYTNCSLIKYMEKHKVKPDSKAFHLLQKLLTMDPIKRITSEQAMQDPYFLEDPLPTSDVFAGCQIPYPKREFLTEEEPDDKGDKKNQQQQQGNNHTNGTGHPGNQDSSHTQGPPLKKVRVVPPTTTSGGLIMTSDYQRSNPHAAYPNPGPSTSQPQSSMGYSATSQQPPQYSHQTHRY
T1 sequence (P24863 whole entry partner): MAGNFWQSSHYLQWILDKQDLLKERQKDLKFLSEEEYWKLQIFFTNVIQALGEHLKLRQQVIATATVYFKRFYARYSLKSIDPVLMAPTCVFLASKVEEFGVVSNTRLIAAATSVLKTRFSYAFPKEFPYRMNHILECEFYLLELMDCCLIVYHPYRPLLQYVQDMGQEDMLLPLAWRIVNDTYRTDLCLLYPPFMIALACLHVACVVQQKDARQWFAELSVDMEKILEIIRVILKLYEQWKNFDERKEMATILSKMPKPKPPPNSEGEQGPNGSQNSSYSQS
T2 sequence (Q9BWU1 whole entry): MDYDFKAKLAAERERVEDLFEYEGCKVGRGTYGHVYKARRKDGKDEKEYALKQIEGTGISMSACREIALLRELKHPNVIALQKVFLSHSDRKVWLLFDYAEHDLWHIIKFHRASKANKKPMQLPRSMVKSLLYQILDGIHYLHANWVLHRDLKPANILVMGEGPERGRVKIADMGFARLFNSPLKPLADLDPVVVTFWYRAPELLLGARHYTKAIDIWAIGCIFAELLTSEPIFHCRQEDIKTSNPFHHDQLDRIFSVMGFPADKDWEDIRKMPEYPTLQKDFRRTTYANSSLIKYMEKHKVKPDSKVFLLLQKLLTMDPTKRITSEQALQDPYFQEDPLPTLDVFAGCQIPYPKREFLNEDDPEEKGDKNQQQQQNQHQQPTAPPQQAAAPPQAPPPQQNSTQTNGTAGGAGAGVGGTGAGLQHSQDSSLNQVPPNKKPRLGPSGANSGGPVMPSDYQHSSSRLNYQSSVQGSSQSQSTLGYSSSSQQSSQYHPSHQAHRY
T2 sequence (P24863 whole entry partner): as the sequence (P24863 whole entry partner) above

COCCN(C)C(=O)c1ccc(Oc2sc(C(N)=O)c3c2-c2sncc2CC3)c(C)n1 [Example 121, 8-((6-((2-Methoxyethyl)(methyl)carbamoyl)-2-methylpyridin-3-yl)oxy)-4,5-dihydrothieno[3,4-g][1,2] benzothiazole-6-carboxamide]
Percent inhibition of CDK8 activity (%) [1]: 104% | Percent inhibition of CDK19 activity (%) [2]: 101% | inhibition at 1 µM [3]: 63%

COCC(=O)N(C)c1ccc(Oc2sc(C(N)=O)c3c2-c2sncc2CC3)cn1 [Example 125, 8-((6-((Methoxyacetyl)(methyl)amino)pyridin-3-yl)oxy)-4,5-dihydrothieno [3,4-g][1,2]benzothiazole-6-carboxamide]
Percent inhibition of CDK8 activity (%) [1]: 102% | Percent inhibition of CDK19 activity (%) [2]: 101% | inhibition at 1 µM [3]: 66%

NC(=O)c1sc(Oc2cccnc2)c2c1CCc1cnsc1-2 [Example 132, 8-(Pyridin-3-yloxy)-4,5-dihydrothieno [3,4-g][1,2]benzothiazole-6-carboxamide]
Percent inhibition of CDK8 activity (%) [1]: 102% | Percent inhibition of CDK19 activity (%) [2]: 97% | inhibition at 1 µM [3]: 61%

N#Cc1ccc(Oc2sc(C(N)=O)c3c2-c2sncc2CC3)cn1 [Example 11, 8-((6-Cyanopyridin-3-yl)oxy)-4,5-dihydrothieno[3,4-g][1,2]benzothiazole-6-carboxamide]
Percent inhibition of CDK8 activity (%) [1]: 96% | Percent inhibition of CDK19 activity (%) [2]: 99% | inhibition at 1 µM [3]: 71%

NC(=O)c1sc(Oc2ccc(=O)[nH]c2)c2c1CCc1cnsc1-2 [Example 33, 8-((6-Oxo-1,6-dihydropyridin-3-yl)oxy)-4,5-dihydrothieno[3,4-g][1,2]benzothiazole-6-carboxamide]
Percent inhibition of CDK8 activity (%) [1]: 101% | Percent inhibition of CDK19 activity (%) [2]: 99% | inhibition at 1 µM [3]: 69%

NC(=O)c1sc(Oc2ccc(C(=O)N3CCCC3)nc2)c2c1CCc1cnsc1-2 [Example 102, 8-((6-(Pyrrolidin-1-ylcarbonyl)pyridin-3-yl)oxy)-4,5-dihydrothieno[3,4-g][1,2] benzothiazole-6-carboxamide]
Percent inhibition of CDK8 activity (%) [1]: 103% | Percent inhibition of CDK19 activity (%) [2]: 100% | inhibition at 1 µM [3]: 58%

CCC(=O)Nc1ccc(Oc2sc(C(N)=O)c3c2-c2sncc2CC3)cn1 [Example 134, 8-((6-(Propionylamino)pyridin-3-yl)oxy)-4,5-dihydrothieno[3,4-g][1,2] benzothiazole-6-carboxamide]
Percent inhibition of CDK8 activity (%) [1]: 100% | Percent inhibition of CDK19 activity (%) [2]: 99% | inhibition at 1 µM [3]: 59%

Cc1nc(C(N)=O)ccc1Oc1sc(C(N)=O)c2c1-c1sncc1CC2 [Example 131, 8-((6-Carbamoyl-2-methylpyridin-3-yl)oxy)-4,5-dihydrothieno[3,4-g][1,2] benzothiazole-6-carboxamide]
Percent inhibition of CDK8 activity (%) [1]: 101% | Percent inhibition of CDK19 activity (%) [2]: 102% | inhibition at 1 µM [3]: 73%

CC(=O)N(C)c1ccc(Oc2sc(C(N)=O)c3c2-c2sncc2CC3)cn1 [Example 135, 8-((6-(Acetyl(methyl)amino)pyridin-3-yl)oxy)-4,5-dihydrothieno[3,4-g][1,2] benzothiazole-6-carboxamide]
Percent inhibition of CDK8 activity (%) [1]: 109% | Percent inhibition of CDK19 activity (%) [2]: 97% | inhibition at 1 µM [3]: 55%

CCOC(=O)c1ccc(Oc2sc(C(N)=O)c3c2-c2sncc2CC3)cn1 [Example 15, Ethyl 5-((6-carbamoyl-4,5-dihydrothieno[3,4-g][1,2]benzothiazol-8-yl)oxy)pyridine-2-carboxylate]
Percent inhibition of CDK8 activity (%) [1]: 100% | Percent inhibition of CDK19 activity (%) [2]: 102% | inhibition at 1 µM [3]: 64%

CC(=O)Nc1ccc(Oc2sc(C(N)=O)c3c2-c2sncc2CC3)c(C)n1 [Example 128, 8-((6-Acetamido-2-methylpyridin-3-yl)oxy)-4,5-dihydrothieno[3,4-g][1,2] benzothiazole-6-carboxamide]
Percent inhibition of CDK8 activity (%) [1]: 98% | Percent inhibition of CDK19 activity (%) [2]: 102% | inhibition at 1 µM [3]: 70%

CNc1ccc(Oc2sc(C(N)=O)c3c2-c2sncc2CC3)cn1 [Example 129, 8-((6-(Methylamino)pyridin-3-yl)oxy)-4,5-dihydrothieno[3,4-g][1,2] benzothiazole-6-carboxamide]
Percent inhibition of CDK8 activity (%) [1]: 100% | Percent inhibition of CDK19 activity (%) [2]: 98% | inhibition at 1 µM [3]: 66%

COCC(=O)N(C)c1ccc(Oc2sc(C(N)=O)c3c2-c2sncc2CC3)c(C)n1 [Example 126, 8-((6-((Methoxyacetyl)(methyl)amino)-2-methylpyridin-3-yl)oxy)-4,5-dihydrothieno[3,4-g][1,2]benzothiazole-6-carboxamide]
Percent inhibition of CDK8 activity (%) [1]: 103% | Percent inhibition of CDK19 activity (%) [2]: 102% | inhibition at 1 µM [3]: 67%

Cc1nc(N)ccc1Oc1sc(C(N)=O)c2c1-c1sncc1CC2 [Example 29, 8-((6-Amino-2-methylpyridin-3-yl)oxy)-4,5-dihydrothieno[3,4-g][1,2]benzothiazole-6-carboxamide]
Percent inhibition of CDK8 activity (%) [1]: 98% | Percent inhibition of CDK19 activity (%) [2]: 100% | inhibition at 1 µM [3]: 70%

Cc1ncccc1Oc1sc(C(=O)Nn2cccc2)c2c1-c1sncc1CC2 [Example 87, 8-((2-Methylpyridin-3-yl)oxy)-N-(1H-pyrrol-1-yl)-4,5-dihydrothieno [3,4-g][1,2]benzothiazole-6-carboxamide]
Percent inhibition of CDK8 activity (%) [1]: 100% | Percent inhibition of CDK19 activity (%) [2]: 100% | inhibition at 1 µM [3]: 48%

COCCN(C)C(=O)c1ccc(Oc2sc(C(N)=O)c3c2-c2sncc2CC3)cc1 [Example 123]
Percent inhibition of CDK8 activity (%) [1]: 100% | Percent inhibition of CDK19 activity (%) [2]: 101% | inhibition at 1 µM [3]: 64%

CN(CC(C)(C)O)C(=O)c1ccc(Oc2sc(C(N)=O)c3c2-c2sncc2CC3)cn1 [Example 115, 8-((6-((2-Hydroxy-2-methylpropyl) (methyl)carbamoyl)pyridin-3-yl)oxy)-4,5-dihydrothieno[3,4-g][1,2] benzothiazole-6-carboxamide]
Percent inhibition of CDK8 activity (%) [1]: 100% | Percent inhibition of CDK19 activity (%) [2]: 95% | inhibition at 1 µM [3]: 63%

Cc1ncccc1Oc1sc(C(N)=O)c2c1-c1snnc1CC2 [Example 43, 8-((2-Methylpyridin-3-yl)oxy)-4,5-dihydrothieno[3,4-g][1,2,3]benzothiadiazole-6-carboxamide]
Percent inhibition of CDK8 activity (%) [1]: 103% | Percent inhibition of CDK19 activity (%) [2]: 93% | inhibition at 1 µM [3]: 49%

NC(=O)c1sc(Oc2ccc(Cl)nc2)c2c1CCc1cnsc1-2 [Example 10, 8-((6-Chloropyridin-3-yl)oxy)-4,5-dihydrothieno[3,4-g][1,2]benzothiazole-6-carboxamide]
Percent inhibition of CDK8 activity (%) [1]: 96% | Percent inhibition of CDK19 activity (%) [2]: 101% | inhibition at 1 µM [3]: 60%

Cc1nc(NC(=O)C2CC2)ccc1Oc1sc(C(N)=O)c2c1-c1sncc1CC2 [Example 30, 8-((6-((Cyclopropylcarbonyl)amino)-2-methylpyridin-3-yl)oxy)-4,5-dihydrothieno[3,4-g][1,2]benzothiazole-6-carboxamide]
Percent inhibition of CDK8 activity (%) [1]: 104% | Percent inhibition of CDK19 activity (%) [2]: 102% | inhibition at 1 µM [3]: 71%

CN(C)C(=O)c1ccc(Oc2sc(C(N)=O)c3c2-c2sncc2CC3)cn1 [Example 91]
Percent inhibition of CDK8 activity (%) [1]: 90% | Percent inhibition of CDK19 activity (%) [2]: 95% | inhibition at 1 µM [3]: 58%

NC(=O)c1sc(Oc2ccc(Br)nc2)c2c1CCc1cnsc1-2 [Example 16, 8-((6-Bromopyridin-3-yl)oxy)-4,5-dihydrothieno[3,4-g][1,2]benzothiazole-6-carboxamide]
Percent inhibition of CDK8 activity (%) [1]: 98% | Percent inhibition of CDK19 activity (%) [2]: 99% | inhibition at 1 µM [3]: 59%
